The values below come from patent US20230413860A1, “Abscisic Acid-Mixed Pig Feed” (Sumitomo Chemical Company, Limited, priority 2020, published 2023).

What all share (type): in vivo, pig
The nature of data set [1]: Effect of abscisic acid on reducing productivity decrease due to cold stress in young pigs. The settings on record: for Feed Conversion Rate (Feed Intake/Body Weight Gain, Average value) / Feed Intake (Average value) / Body Weight Gain (Average value): low temperature (20.4° C.), young pigs; for Body Weight Gain (Average value): age 35 to 70 days. How it is done: Eighty four (84) crossbred young pigs (LWD) at an age of 28 days were employed in this test. Body weight of the each young pigs was measured and seven animals were assigned to one section considering the average body weight across the sections was equal, and the three sections (replicates) were assigned to a total four test groups. The test period was from 28 to 70 day-old, and S-abscisic acid was (hereinafter, referred to as “S-ABA”) used as a test substance. The S-ABA was added to the feed at the concentrations shown in Table 1, and the feed containing S-ABA was fed daily to the pigs at the age of 28 to 70 days. The low temperature environment was carried out from the age of 36 to 70 days of the pigs.
The following four groups were set.
The pigs were raised at the optimal temperature from the age of 28 to 35 day-old. After the age of 36 days, the pigs of the Test group 1 were housed at an optimal temperature and the pigs of the Test groups 2 to 4 were exposed to a particular low temperature by air conditioner. The raising temperature were measured with a thermo-hygrometer or a data logger which was installed near the center of the raising room, and then recorded. The average room temperature of the optimal temperature group was 26.1° C., and the average room temperature of the low temperature group was 20.4° C.
As a feed, an early feed, middle feed or late feed of MAMACOLO which was manufactured by FEED ONE CO., LTD. (2-6, Higashifukasiba Kamisu-shi, Ibaraki) was given by ad libitum feeding. A drinking water was freely ingested by a waterer with a picker. The early feed was given until the age of 35 days of the pig, the middle feed was given at the age of from 36 days to 42 days, and the late feed was given at the age of post 43 days.
• (i) Clinical symptoms: observed daily. • (ii) Body weight: Body weight was measured for each individual at the age of 28, 35 and 70 days old, and the average weight gain per a section from the age of 35 to 70 days during the test period was calculated. • (iii) Feed intake: Feed intake was measured daily for each section, and feed intake for one animal per a week was calculated. Also, feed conversion rate (feed intake/body weight gain) was calculated from “Average feed intake” and “Average body weight gain per section” during the test period.

A short description of data set [2]: Effect of abscisic acid on reducing productivity decrease due to heat stress in young pigs. The following applies: for Feed Conversion Rate (Feed Intake/Body Weight Gain, Average value) / Feed Intake (Average value) / Body Weight Gain (Average value): high temperature (30.6° C.), young pigs; for Body Weight Gain (Average value): age 35 to 70 days. How it is done:
Eighty four (84) of crossbred young pigs (LWD) at an age of 28 days were employed in this test. Body weight of the each young pigs was measured and seven animals were assigned to one section considering the average body weight across the sections was equal, and the three sections (replicates) were assigned to a total four test groups. The test period was from 28 to 70 day-old, and S-abscisic acid was used as a test substance. The S-ABA was added to the feed at the concentrations shown in the Table 6, and the feed containing S-ABA was fed daily to the pigs at the age of 28 to 70 days. The high temperature environment was carried out from the age of 36 to 70 days of the pigs.
The following four groups were set. Three sections (repetitions) per one group was set, which were assigned to each test group as indicated in the below Table.
The pigs were raised at the optimal temperature from the age of 28 to 35 day-old. After the age of 36 days the pigs of the Test group 1 were housed at an optimal temperature and the pigs of the Test groups 2 to 4 were exposed to a particular high temperature by air conditioner. The raising temperature were measured with a thermo-hygrometer or a data logger which was installed near the center of the raising room, and then recorded. The average room temperature of the optimal temperature group was 26.1° C., and the average room temperature of the […] temperature group was 30.6° C.
As a feed, similarly to the test example 1, an early feed, middle feed or late feed of MAMACOLO which was manufactured by FEED ONE CO., LTD. (2-6, Higashifukasiba Kamisu-shi, Ibaraki) was given by ad libitum feeding. A drinking water was freely ingested by a waterer with a picker. The early feed was given until the age of 35 days of the pig, the middle feed was given at the age of from 36 days to 42 days, and the late feed was given at the age of post 43 days.
• (i) Clinical symptoms: observed daily. • (ii) Body weight: Body weight was measured for each individual at the age of 28, 35 and 70 days old, and the average weight gain per a section from the age of 35 to 70 days during the test period was calculated. • (iii) Feed intake: Feed intake was measured daily by each section, and feed intake for one animal per a week was calculated. Also, feed conversion rate (feed intake/body weight gain) was calculated from “Average feed intake” and “Average body weight gain per section” during the test period.

In another data set the test system is reduced glutathione. As to the kind of experiment: Effect of abscisic acid on increasing production of reduced glutathione in small intestine of gilts. An excerpt: Twelve (12) of gilts at an age of 8 months were employed in this test. The S-ABA (particle size of 0.1 to 1 mm) in the amounts as shown in Table 11 was supplemented in the feed for about 40 days from the day of artificial insemination.
• (i) Clinical symptoms: observed daily. • (ii) Sampling of intestinal tracts: The pig was dissected on the 40th day of pregnancy, and the small intestine was sampled.
The measurement results of reduced glutathione in a small intestine after the administration for about 40 days are shown in Table 12. Using a commercially available glutathione measuring kit (manufactured by DOJINDO CHEMICALS Inc.; […]), the reduced glutathione contained in 1 g of small intestine tissue was determined quantitatively.

As to `CC1=CC(=O)CC(C)(C)[C@@]1(O)/C=C/C(C)=C\C(=O)O` [ABA, (S)-(+)-abscisic acid], the Clinical symptoms entry in data set [1] (0.1, 0.5 or 1 ppm in feed, age 28 to 70 days, observed daily, low temperature) is on record as “No abnormality was seen”; in data set [2] (0.1, 0.5 or 1 ppm in feed, age 28 to 70 days, observed daily, high temperature), “No abnormality was seen”; with reduced glutathione (10 ppm S-ABA in feed for about 40 days, observed daily) it was “No abnormality was seen”. Moreover, the “Feed Conversion Rate (Feed Intake/Body Weight Gain, Average value)” value in data set [1] (0.1 ppm ABA in feed) stood at 4.40; in data set [1] (0.5 ppm ABA in feed), 4.29; in data set [1] (1.0 ppm ABA in feed) it was 4.41; in data set [2] (0.1 ppm ABA in feed), 4.54; in data set [2] (0.5 ppm ABA in feed), 4.25; in data set [2] (1.0 ppm ABA in feed), 3.91. Moreover, the “Feed Intake (Average value)” value in data set [1] (0.1 ppm ABA in feed) was 29.81 kg; in data set [1] (0.5 ppm ABA in feed), 29.91 kg; in data set [1] (1.0 ppm ABA in feed), 30.30 kg; in data set [2] (0.1 ppm ABA in feed), 30.7 kg; in data set [2] (0.5 ppm ABA in feed) it was 29.7 kg; in data set [2] (1.0 ppm ABA in feed), 32.9 kg. In addition, the “Body Weight Gain (Average value)” value came to 16.99 kg in data set [1] (0.1 ppm ABA in feed); 16.40 kg in data set [1] (0.5 ppm ABA in feed); 17.00 kg in data set [1] (1.0 ppm ABA in feed); 18.04 kg in data set [2] (0.1 ppm ABA in feed); 18.25 kg in data set [2] (0.5 ppm ABA in feed); 19.02 kg in data set [2] (1.0 ppm ABA in feed). Moreover, the “Reduced glutathione in small intestine tissue compared to the no dosing S-ABA group” value in the data set with reduced glutathione (10 ppm S-ABA in feed for about 40 days) is listed as “increased amount of reduced glutathione in small intestine tissue significantly”. In addition, in the data set on reduced glutathione (10 ppm S-ABA in feed for about 40 days from artificial insemination, small intestine tissue), the “Reduced glutathione Amount” value turned out to be 0.234 μmol/g wet tissue.
